This note sets out measurements from US6355690B1, “Remedy for CAG repeat expansion diseases” (Niigata University, priority 1998, dated 2002).

Common to all, as to format: cell-based
In assay [1] the test system is COS7 cells transfected with pEGFP-Q82-19. Nature of the assay: Aggregate body formation in COS7 cells expressing truncated DRPLA protein with expanded polyglutamine stretch (GFP fusion). The procedure:
(§1) The COS7 cells were transfected with plasmid thus constructed. COS7 cells were seeded in Dulbecco's modified Eagle's medium (DMEM) containing 10% fetal calf serum the day before transfection at 3×10^4 per well of an 8-well chamber slide (Nunc Inc., Naperville, Ill.). The COS7 cells were transfected with 0.5 μg of plasmid DNA using the SuperFect transfection reagent (Qiagen, Hilden, Germany) according to the manufacturer's instructions.
(§2) To investigate whether the transglutaminase reaction is involved in the formation of aggregate bodies and the induction of apoptotic cell death, the inventors cultured COS7 cells in the presence of transglutaminase inhibitors (cystamine^28, monodansyl cadaverine (MDC)^29, and putrescine^30), after transfection. For tilis purpose, truncated DRPLA proteins were expressed as fusion proteins with green fluorescence protein (GFP), which allowed the highly sensitive observation of viable cells. The inserts of pEF-BOS-FQ82-19 and pEF-BOS-FQ19-19 were transferred into pEGFP containing the coding region for GFP. The resultant plasmid DNAs (pEGFP-FQ82-19 and pEGFP-FQ19-19) were transfected into COS7 cells. The plasmid DNA was constructed as below. The segment coding for 3 histidines, the polyglutamine stretch and 19 amino acids downstream of the polyglutamine stretch of DRPLA cDNA (pDRPLAE or pDRPLAN) was amplified by PCR using a primer (5′-GGGAATTCGGATGCACCAT-[…]-3′) containing an EcoRI linker sequence and a primer (5′-[…]-3′). PCR products were digested with EcoRI and BamHI, and subcloned into the pEGFP-N1 expression vector (Clontech, Palo Alto, Calif.). The nucleotide sequences of all the constructs were confirmed using automated DNA sequencers (PE Applied Biosystems, Foster City, Calif.).
The effects of other transglutaminase inhibitor (MDC) on the aggregate formation and apoptotic cell death were also investigated. The TUNEL assay was performed using an In Situ Cell Death Detection Kit (Boehringer Mannheim, Mannheim, Germany) according to the manufacturer's instructions. FITC-conjugated dUTP was used for the terminal deoxynucleotidyl transferase reaction. An assay for nuclear fragmentation was performed by staining cells with […] Hoechst 33342. Quantitation was performed by analyzing 100 cells expressing the FLAG epitope. Statistical analyses were performed using Student's t test.

For assay [2] the test system is unchanged. Kind of assay: Nuclear fragmentation (apoptotic cell death), Hoechst 33342 staining. The procedure: as §1, §2
The effects of other transglutaminase inhibitor (MDC) on the aggregate formation and apoptotic cell death were also investigated. The TUNEL assay was performed using an In Situ Cell Death Detection Kit (Boehringer Mannheim, Mannheim, Germany) according to the manufacturer's instructions. […] Quantitation was performed by analyzing 100 cells expressing the FLAG epitope. […]

The test system of assay [3] is COS7 cells transfected with pEGFP-Q19-19. Kind of assay: Expression pattern of GFP fusion protein with polyglutamine stretch of normal length. As to conditions: 1 mM cystamine. On the procedure:
as §1
To investigate whether the transglutaminase reaction is involved in the formation of aggregate bodies and the induction of apoptotic cell death, the inventors cultured COS7 cells in the presence of transglutaminase inhibitors (cystamine^28, monodansyl cadaverine (MDC)^29, and putrescine^30), after transfection. For tilis purpose, truncated DRPLA proteins were expressed as fusion proteins with green fluorescence protein (GFP), which allowed the highly sensitive observation of viable cells. The inserts of pEF-BOS-FQ82-19 and pEF-BOS-FQ19-19 were transferred into pEGFP containing the coding region for GFP. The resultant plasmid DNAs (pEGFP-FQ82-19 and pEGFP-FQ19-19) were transfected into COS7 cells. The plasmid DNA was constructed as below. […]

Where [4] appears, read: even at 100 µM of cystamine, various concentrations.

Turning to `CN(C)c1cccc2c(S(=O)(=O)NCCCCCN)cccc12` [MDC, monodansyl cadaverine], the “sizes of the aggregate bodies (in words)” value in assay [1] (presence of MDC compared to absence of MDC) is on record as “smaller”. Besides, the “frequencies of the cells with aggregate formation (in words)” value in assay [1] (various concentrations of MDC) is listed as “no significant changes”. Further, the “suppression of nuclear fragmentation (in words)” value in assay [2] (various concentrations of MDC) is on record as “Strong suppression”.

In the case of `NCCSSCCN` [cystamine], the “frequency of cells retaining a diffuse cytoplasmic expression pattern without aggregate formation” value in assay [1] (1 mM cystamine, 60 hours after transfection, 32% in absence of cystamine, P<0.01) is reported as 56%. For the same compound, the “cells with formation of aggregate bodies” value in assay [1] (1 mM cystamine, cultured for 60 hours, 42% without cystamine, P<0.01) was determined as 33%. The “suppression of aggregate bodies (in words)” value in assay [1] (setting [4]) is listed as “suppression effects appeared in a dose-dependent manner”. Also, the nuclear fragmentation in assay [2] (1 mM cystamine, 60 hours, 38% without cystamine, P<0.05) came to 24%. The “suppression of nuclear fragmentation (in words)” value in assay [2] (setting [4]) is given as “suppression effects appeared in a dose-dependent manner”. Further, the “expression patterns of the fusion protein (in words)” value in assay [3] is reported as “did not change”.
